Laboratory results taken from patent publication US7037500B1, “Method for using phagocytic particles and ATP receptors to deliver antigens to MHC class I receptors to induce immunity against microbial pathogens or tumors or to suppress immunity” (The Trustees of Columbia University in the City of New York, priority 2000, dated 2006).

Assays:
[1] = biological target: T1, P2X7 receptors of J774 cells (Mus musculus, UniProt Q9Z1M0); conditions: previous study (8); cited from earlier work
T1 construct: P2X7 receptors of J774 cells; endogenous in cells; host or cells: J774 macrophage-like cells
T1 sequence (Q9Z1M0 1-595): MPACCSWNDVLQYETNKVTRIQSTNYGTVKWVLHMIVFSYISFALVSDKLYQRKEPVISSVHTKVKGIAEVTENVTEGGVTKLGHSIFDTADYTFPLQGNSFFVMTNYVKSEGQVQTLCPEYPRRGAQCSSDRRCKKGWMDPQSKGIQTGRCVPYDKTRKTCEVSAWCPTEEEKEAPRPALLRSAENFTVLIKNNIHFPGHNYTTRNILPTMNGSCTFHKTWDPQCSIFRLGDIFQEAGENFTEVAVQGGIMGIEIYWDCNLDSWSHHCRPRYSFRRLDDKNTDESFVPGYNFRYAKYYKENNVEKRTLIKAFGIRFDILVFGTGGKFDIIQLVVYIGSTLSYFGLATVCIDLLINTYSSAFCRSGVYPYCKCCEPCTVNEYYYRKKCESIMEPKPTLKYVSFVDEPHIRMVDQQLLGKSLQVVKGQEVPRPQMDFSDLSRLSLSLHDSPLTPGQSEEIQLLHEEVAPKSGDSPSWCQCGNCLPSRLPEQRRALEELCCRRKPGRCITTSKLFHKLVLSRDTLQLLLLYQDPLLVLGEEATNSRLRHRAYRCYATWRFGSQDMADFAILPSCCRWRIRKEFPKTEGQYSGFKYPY

[2] = test system: Mouse bone marrow derived dendritic cells / isogenic spleen derived CD8 lymphocytes; assay: CTL assay, 3H-thymidine uptake of CD8 lymphocytes co-incubated with treated dendritic cells; assay type: cell-based
Protocol: It is shown herein that if a peptide such as ovalbumin is loaded into the IgG opsonized red blood cell resealed ghosts and then incubated with mouse bone derived dendritic cells—the dendritic cells will present class I MHC and induce cytotoxic CD8 lymphocytes as measured by the capacity of these lymphocytes to proliferate in response to co-incubation of the dendritic cells with CD8 lymphocytes. (Table 1)
Table 1: Mouse Bone marrow derived dendritic cells prepared as described in FIG. 3 were incubated with the appropriate isogenic spleen derived CD8 lymphocytes for several hours and then the CTL response was assayed by radiolabeled thymidine incorporation into the lymphocytes indicating a proliferative response mediated via class I MHC.

P2X7 receptors = biological target: T2, P2X7 receptors (Mus musculus, UniProt Q9Z1M0); conditions: cited from earlier work
T2 sequence (Q9Z1M0 1-595): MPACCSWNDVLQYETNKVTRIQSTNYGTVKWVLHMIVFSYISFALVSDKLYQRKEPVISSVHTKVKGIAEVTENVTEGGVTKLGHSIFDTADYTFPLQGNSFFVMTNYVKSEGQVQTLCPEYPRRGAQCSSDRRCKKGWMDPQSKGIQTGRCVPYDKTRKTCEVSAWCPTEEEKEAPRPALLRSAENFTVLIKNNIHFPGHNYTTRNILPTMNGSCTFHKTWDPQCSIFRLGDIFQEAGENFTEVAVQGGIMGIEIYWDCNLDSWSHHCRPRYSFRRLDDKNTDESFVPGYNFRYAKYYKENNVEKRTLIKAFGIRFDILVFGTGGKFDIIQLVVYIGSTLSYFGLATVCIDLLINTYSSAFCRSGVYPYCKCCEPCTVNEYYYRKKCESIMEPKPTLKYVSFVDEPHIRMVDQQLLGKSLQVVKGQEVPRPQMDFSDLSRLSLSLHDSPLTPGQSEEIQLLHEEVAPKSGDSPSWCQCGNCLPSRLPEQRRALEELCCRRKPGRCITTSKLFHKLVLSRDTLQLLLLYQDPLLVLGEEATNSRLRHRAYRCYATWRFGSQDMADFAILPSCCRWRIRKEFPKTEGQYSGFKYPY

Cc1ccc(N(CC(=O)O)CC(=O)O)c(OCCOc2cc3cc(-c4ncc(C(=O)O)o4)oc3cc2N(CC(=O)O)CC(=O)O)c1 [fura 2]
penetration of plasma membrane pores formed by ATP4-activated P2X7 receptors [1]: penetrate plasma membrane pores

Soluble Ova peptide: soluble ovalbumin peptide (amino acids 257–264) (ESIINFEK; UniProt P01012 257-264, looked up, fragment)
CTL Assay- 3H-thymidine uptake (proliferation assay-cpm) ([2]; dendritic cells treated with 100 ng/ml): 90,000 cpm

Nc1ncnc2c1ncn2[C@@H]1O[C@H](COP(=O)(O)OP(=O)(O)OP(=O)(O)O)[C@@H](O)[C@H]1O [ATP^4−]
[ATP4-] needed to induce pore formation by P2X7 receptors (P2X7 receptors): > 130 µM

B1: Soluble Ova protein: soluble ovalbumin protein (protein, UniProt P01012 2-386, looked up)
Ovalbumin: GSIGAASMEFCFDVFKELKVHHANENIFYCPIAIMSALAMVYLGAKDSTRTQINKVVRFDKLPGFGDSIEAQCGTSVNVHSSLRDILNQITKPNDVYSFSLASRLYAEERYPILPEYLQCVKELYRGGLEPINFQTAADQARELINSWVESQTNGIIRNVLQPSSVDSQTAMVLVNAIVFKGLWEKAFKDEDTQAMPFRVTEQESKPVQMMYQIGLFRVASMASEKMKILELPFASGTMSMLVLLPDEVSGLEQLESIINFEKLTEWTSSNVMEERKIKVYLPRMKMEEKYNLTSVLMAMGITDVFSSSANLSGISSAESLKISQAVHAAHAEINEAGREVVGSAEAGVDAASVSEEFRADHPFLFCIKHIATNAVLFFGRCVSP
CTL Assay- 3H-thymidine uptake (proliferation assay-cpm) ([2]; dendritic cells treated with 10 mg/ml): 160,000 cpm
